Target: T1, human h-15-LOX-1 (Homo sapiens, UniProt P16050)
T1 sequence (P16050 1-662): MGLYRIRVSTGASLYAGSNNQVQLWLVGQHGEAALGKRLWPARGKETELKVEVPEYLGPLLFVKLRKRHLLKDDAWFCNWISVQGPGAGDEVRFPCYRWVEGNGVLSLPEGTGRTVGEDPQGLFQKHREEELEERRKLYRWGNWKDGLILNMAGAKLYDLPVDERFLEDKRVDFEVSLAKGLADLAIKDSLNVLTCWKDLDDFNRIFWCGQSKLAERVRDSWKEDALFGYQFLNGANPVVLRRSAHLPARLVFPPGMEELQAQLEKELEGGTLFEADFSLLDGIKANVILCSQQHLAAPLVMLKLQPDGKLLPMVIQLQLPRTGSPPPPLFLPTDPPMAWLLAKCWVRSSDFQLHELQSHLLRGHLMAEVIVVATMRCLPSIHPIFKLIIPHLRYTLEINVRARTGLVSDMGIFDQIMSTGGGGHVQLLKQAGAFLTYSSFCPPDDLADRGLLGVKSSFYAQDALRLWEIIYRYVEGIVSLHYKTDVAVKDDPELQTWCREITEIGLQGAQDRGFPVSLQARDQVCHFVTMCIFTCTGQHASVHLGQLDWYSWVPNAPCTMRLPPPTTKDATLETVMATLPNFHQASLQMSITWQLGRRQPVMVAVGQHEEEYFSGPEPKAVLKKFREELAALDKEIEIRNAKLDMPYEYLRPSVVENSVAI
Assay: Human h-15-LOX-1 screening UV assay
Assay type: biochemical
Conditions: for h-15-LOX-1 inhibitory potency ranking at 50 µM (in words): 10 min pre-incubation
Protocol: The residual enzyme activity was measured after 10 min pre-incubation with the tested compounds at room temperature. […] Compound c11 follows.
The assay buffer consists of HEPES titrated to pH 7.5 using a concentrated aqueous solution of NaOH. Linoleic acid (LA) was used as a substrate. The linear absorbance increase in absence of the inhibitor was set as 100%, whereas the absorbance increase in absence of the enzyme was set to 0%. All experiments were performed in triplicate and the average triplicate values and their standard deviations are plotted. The vertical axis describes the residual enzyme activity percent % of the human h-15-LOX-1, whereas the horizontal axis describes the concentration of 50 µM of the compounds. The half maximal inhibitor concentration (IC50) of the inhibitors for h-15-LOX-1 was determined using the same assay (Figure 6 and Figure 7).

| SMILES | h-15-LOX-1 inhibitory potency ranking at 50 µM (in words) | IC50 (read-out: h-15-LOX-1 Inhb. IC50) |
| --- | --- | --- |
| O=C(/C=C/c1cccc2ccccc12)c1ccccc1O [b4, (E)-1-(2-hydroxyphenyl)-3-(naphthalen-1-yl) prop-2-en-1-one] | highest activity within the group | 9.5 µM |
| O=C(/C=C/C=C/c1ccc([N+](=O)[O-])cc1)c1ccc(OCCCOc2ccc(C(=O)/C=C/C=C/c3ccc([N+](=O)[O-])cc3)cc2)cc1 [c11, (2E,2′E,4E,4′E)-1,1′-((propane-1,3-diylbis(oxy))bis(4,1-phenylene))bis(5-(4-nitrophenyl)penta-2,4-dien-1-one)] | (2nd potent at 50 μM) |  |
